From publication PMC7156458, “Synthetic biology based construction of biological activity-related library of fungal decalin-containing diterpenoid pyrones” (Nature Communications, 2020)

Target: Aβ42 (Homo sapiens, UniProt P05067)
Test: Th-T (thioflavin-T) assay of Aβ42 aggregation
Assay type: biochemical
Details: for Th-T assay plate reading, mean of three wells (Supplementary Fig. 47): source data, Ab alone and No Ab as controls

Aβ42, sequence (P05067 672-713): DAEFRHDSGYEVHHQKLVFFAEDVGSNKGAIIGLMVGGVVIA

## C=C1CC[C@@H]2[C@](C)(CC[C@H]3O[C@H](C=C(C)C)C[C@@]23C)[C@@H]1Cc1c(O)c(C)c(C)oc1=O [Compound 10, higginsianin A]
Aβ42 aggregation time course, reading M117
  Th-T fluorescence, mean of three wells: 3.027
Aβ42 aggregation time course, reading M118
  Th-T fluorescence, mean of three wells: 3.005
Aβ42 aggregation time course, reading M119
  Th-T fluorescence, mean of three wells: 3.036
Aβ42 aggregation time course, reading M120
  Th-T fluorescence, mean of three wells: 3.024
Aβ42 aggregation time course, reading M121
  Th-T fluorescence, mean of three wells: 3.009
Aβ42 aggregation time course, reading M122
  Th-T fluorescence, mean of three wells: 2.9814
Aβ42 aggregation time course, reading M123
  Th-T fluorescence, mean of three wells: 3.007
Aβ42 aggregation time course, reading M124
  Th-T fluorescence, mean of three wells: 3.01
Aβ42 aggregation time course, reading M125
  Th-T fluorescence, mean of three wells: 2.994
Aβ42 aggregation time course, reading M126
  Th-T fluorescence, mean of three wells: 2.985
Aβ42 aggregation time course, reading M127
  Th-T fluorescence, mean of three wells: 3.018
Aβ42 aggregation time course, reading M128
  Th-T fluorescence, mean of three wells: 2.986
Aβ42 aggregation time course, reading M129
  Th-T fluorescence, mean of three wells: 2.997
Aβ42 aggregation time course, reading M130
  Th-T fluorescence, mean of three wells: 3.004
Aβ42 aggregation time course, reading M131
  Th-T fluorescence, mean of three wells: 2.988
Aβ42 aggregation time course, reading M132
  Th-T fluorescence, mean of three wells: 2.974
Aβ42 aggregation time course, reading M133
  Th-T fluorescence, mean of three wells: 2.995
Aβ42 aggregation time course, reading M134
  Th-T fluorescence, mean of three wells: 2.998
Aβ42 aggregation time course, reading M135
  Th-T fluorescence, mean of three wells: 3.001
Aβ42 aggregation time course, reading M136
  Th-T fluorescence, mean of three wells: 2.985
Supplementary Fig. 47, reading M137
  Th-T fluorescence, mean of three wells: 2.995
Supplementary Fig. 47, reading M138
  Th-T fluorescence, mean of three wells: 2.975
Supplementary Fig. 47, reading M139
  Th-T fluorescence, mean of three wells: 2.9735
Supplementary Fig. 47, reading M140
  Th-T fluorescence, mean of three wells: 2.981
Supplementary Fig. 47, reading M141
  Th-T fluorescence, mean of three wells: 2.969
Supplementary Fig. 47, reading M142
  Th-T fluorescence, mean of three wells: 2.937
Supplementary Fig. 47, reading M143
  Th-T fluorescence, mean of three wells: 3.01
Supplementary Fig. 47, reading M144
  Th-T fluorescence, mean of three wells: 2.949
Supplementary Fig. 47, reading M145
  Th-T fluorescence, mean of three wells: 2.953
Supplementary Fig. 47 source data, measurement M37 of time course
  Th-T fluorescence, mean of three wells: 3.026
Supplementary Fig. 47 source data, measurement M38 of time course
  Th-T fluorescence, mean of three wells: 3.058
Supplementary Fig. 47 source data, measurement M39 of time course
  Th-T fluorescence, mean of three wells: 3.066
Supplementary Fig. 47 source data, measurement M40 of time course
  Th-T fluorescence, mean of three wells: 3.0688
Supplementary Fig. 47 source data, measurement M41 of time course
  Th-T fluorescence, mean of three wells: 3.079
Supplementary Fig. 47 source data, measurement M42 of time course
  Th-T fluorescence, mean of three wells: 3.094
Supplementary Fig. 47 source data, measurement M43 of time course
  Th-T fluorescence, mean of three wells: 3.089
Supplementary Fig. 47 source data, measurement M44 of time course
  Th-T fluorescence, mean of three wells: 3.087
Supplementary Fig. 47 source data, measurement M45 of time course
  Th-T fluorescence, mean of three wells: 3.107
Supplementary Fig. 47 source data, measurement M46 of time course
  Th-T fluorescence, mean of three wells: 3.104
Supplementary Fig. 47 source data, measurement M47 of time course
  Th-T fluorescence, mean of three wells: 3.097
Supplementary Fig. 47 source data, measurement M48 of time course
  Th-T fluorescence, mean of three wells: 3.099
Supplementary Fig. 47 source data, measurement M49 of time course
  Th-T fluorescence, mean of three wells: 3.124
Supplementary Fig. 47 source data, measurement M50 of time course
  Th-T fluorescence, mean of three wells: 3.143
Supplementary Fig. 47 source data, measurement M51 of time course
  Th-T fluorescence, mean of three wells: 3.109
Supplementary Fig. 47 source data, measurement M52 of time course
  Th-T fluorescence, mean of three wells: 3.12
Supplementary Fig. 47 source data, measurement M53 of time course
  Th-T fluorescence, mean of three wells: 3.131
Supplementary Fig. 47 source data, measurement M54 of time course
  Th-T fluorescence, mean of three wells: 3.122
Supplementary Fig. 47 source data, measurement M55 of time course
  Th-T fluorescence, mean of three wells: 3.1161
Supplementary Fig. 47 source data, measurement M56 of time course
  Th-T fluorescence, mean of three wells: 3.112
Measurement M1
  Th-T assay plate reading, mean of three wells (Supplementary Fig. 47): 0.2982
Measurement M2
  Th-T assay plate reading, mean of three wells (Supplementary Fig. 47): 0.2966
Measurement M3
  Th-T assay plate reading, mean of three wells (Supplementary Fig. 47): 0.3112
Measurement M4
  Th-T assay plate reading, mean of three wells (Supplementary Fig. 47): 0.3288
Measurement M5
  Th-T assay plate reading, mean of three wells (Supplementary Fig. 47): 0.3791
Measurement M6
  Th-T assay plate reading, mean of three wells (Supplementary Fig. 47): 0.4184
Measurement M7
  Th-T assay plate reading, mean of three wells (Supplementary Fig. 47): 0.4946
Measurement M8
  Th-T assay plate reading, mean of three wells (Supplementary Fig. 47): 0.5732
Measurement M9
  Th-T assay plate reading, mean of three wells (Supplementary Fig. 47): 0.6554
Measurement M10
  Th-T assay plate reading, mean of three wells (Supplementary Fig. 47): 0.6998
Measurement M11
  Th-T assay plate reading, mean of three wells (Supplementary Fig. 47): 0.7388
Measurement M12
  Th-T assay plate reading, mean of three wells (Supplementary Fig. 47): 0.7839
Measurement M13
  Th-T assay plate reading, mean of three wells (Supplementary Fig. 47): 0.8524
Measurement M14
  Th-T assay plate reading, mean of three wells (Supplementary Fig. 47): 1.025
Measurement M15
  Th-T assay plate reading, mean of three wells (Supplementary Fig. 47): 1.367
Measurement M16
  Th-T assay plate reading, mean of three wells (Supplementary Fig. 47): 1.777
Reading M17, Supplementary Fig. 47 source data
  Th-T fluorescence, mean of three wells: 2.114
Reading M18, Supplementary Fig. 47 source data
  Th-T fluorescence, mean of three wells: 2.387
Reading M19, Supplementary Fig. 47 source data
  Th-T fluorescence, mean of three wells: 2.598
Reading M20, Supplementary Fig. 47 source data
  Th-T fluorescence, mean of three wells: 2.677
Reading M21, Supplementary Fig. 47 source data
  Th-T fluorescence, mean of three wells: 2.685
Reading M22, Supplementary Fig. 47 source data
  Th-T fluorescence, mean of three wells: 2.669
Reading M23, Supplementary Fig. 47 source data
  Th-T fluorescence, mean of three wells: 2.723
Reading M24, Supplementary Fig. 47 source data
  Th-T fluorescence, mean of three wells: 2.7479
Reading M25, Supplementary Fig. 47 source data
  Th-T fluorescence, mean of three wells: 2.777
Reading M26, Supplementary Fig. 47 source data
  Th-T fluorescence, mean of three wells: 2.823
Reading M27, Supplementary Fig. 47 source data
  Th-T fluorescence, mean of three wells: 2.858
Reading M28, Supplementary Fig. 47 source data
  Th-T fluorescence, mean of three wells: 2.868
Reading M29, Supplementary Fig. 47 source data
  Th-T fluorescence, mean of three wells: 2.914
Reading M30, Supplementary Fig. 47 source data
  Th-T fluorescence, mean of three wells: 2.924
Reading M31, Supplementary Fig. 47 source data
  Th-T fluorescence, mean of three wells: 2.961
Reading M32, Supplementary Fig. 47 source data
  Th-T fluorescence, mean of three wells: 2.958
Reading M33, Supplementary Fig. 47 source data
  Th-T fluorescence, mean of three wells: 2.966
Reading M34, Supplementary Fig. 47 source data
  Th-T fluorescence, mean of three wells: 3.0036
Reading M35, Supplementary Fig. 47 source data
  Th-T fluorescence, mean of three wells: 3.001
Reading M36, Supplementary Fig. 47 source data
  Th-T fluorescence, mean of three wells: 3.031
Time course, reading M57
  Th-T fluorescence, mean of three wells: 3.145
Time course, reading M58
  Th-T fluorescence, mean of three wells: 3.098
Time course, reading M59
  Th-T fluorescence, mean of three wells: 3.0965
Time course, reading M60
  Th-T fluorescence, mean of three wells: 3.12
Time course, reading M61
  Th-T fluorescence, mean of three wells: 3.114
Time course, reading M62
  Th-T fluorescence, mean of three wells: 3.124
Time course, reading M63
  Th-T fluorescence, mean of three wells: 3.121
Time course, reading M64
  Th-T fluorescence, mean of three wells: 3.089
Time course, reading M65
  Th-T fluorescence, mean of three wells: 3.1417
Time course, reading M66
  Th-T fluorescence, mean of three wells: 3.124
Time course, reading M67
  Th-T fluorescence, mean of three wells: 3.125
time-course reading M97, Supplementary Fig. 47 source data
  Th-T fluorescence, mean of three wells: 3.037
time-course reading M98, Supplementary Fig. 47 source data
  Th-T fluorescence, mean of three wells: 3.037
time-course reading M99, Supplementary Fig. 47 source data
  Th-T fluorescence, mean of three wells: 3.05
time-course reading M100, Supplementary Fig. 47 source data
  Th-T fluorescence, mean of three wells: 3.074
time-course reading M101, Supplementary Fig. 47 source data
  Th-T fluorescence, mean of three wells: 3.025
time-course reading M102, Supplementary Fig. 47 source data
  Th-T fluorescence, mean of three wells: 3.036
time-course reading M103, Supplementary Fig. 47 source data
  Th-T fluorescence, mean of three wells: 3.034
time-course reading M104, Supplementary Fig. 47 source data
  Th-T fluorescence, mean of three wells: 3.0181
time-course reading M105, Supplementary Fig. 47 source data
  Th-T fluorescence, mean of three wells: 3.041
time-course reading M106, Supplementary Fig. 47 source data
  Th-T fluorescence, mean of three wells: 3.028
time-course reading M107, Supplementary Fig. 47 source data
  Th-T fluorescence, mean of three wells: 3.025
time-course reading M108, Supplementary Fig. 47 source data
  Th-T fluorescence, mean of three wells: 3.028
time-course reading M109, Supplementary Fig. 47 source data
  Th-T fluorescence, mean of three wells: 3.032
time-course reading M110, Supplementary Fig. 47 source data
  Th-T fluorescence, mean of three wells: 3.022
time-course reading M111, Supplementary Fig. 47 source data
  Th-T fluorescence, mean of three wells: 3.062
time-course reading M112, Supplementary Fig. 47 source data
  Th-T fluorescence, mean of three wells: 3.021
time-course reading M113, Supplementary Fig. 47 source data
  Th-T fluorescence, mean of three wells: 3.021
time-course reading M114, Supplementary Fig. 47 source data
  Th-T fluorescence, mean of three wells: 3.0544
time-course reading M115, Supplementary Fig. 47 source data
  Th-T fluorescence, mean of three wells: 3.028
time-course reading M116, Supplementary Fig. 47 source data
  Th-T fluorescence, mean of three wells: 3.017
